Literature values, collected in patent US20250169750A1 (HEMOLENS DIAGNOSTICS SP. Z O.O., priority 2022, published 2025).
Blank lines part the entries; values can stand above or below the compound they belong to.

How the values were obtained:
[1] = molecular target: A2A adenosine receptors (Homo sapiens, UniProt P29274)
[2] = test system: coronary vascular responsiveness to adenosine; details: for coronary conductance change / systemic pressure change: dog, in vivo

Chain of A2A adenosine receptors (P29274 whole entry): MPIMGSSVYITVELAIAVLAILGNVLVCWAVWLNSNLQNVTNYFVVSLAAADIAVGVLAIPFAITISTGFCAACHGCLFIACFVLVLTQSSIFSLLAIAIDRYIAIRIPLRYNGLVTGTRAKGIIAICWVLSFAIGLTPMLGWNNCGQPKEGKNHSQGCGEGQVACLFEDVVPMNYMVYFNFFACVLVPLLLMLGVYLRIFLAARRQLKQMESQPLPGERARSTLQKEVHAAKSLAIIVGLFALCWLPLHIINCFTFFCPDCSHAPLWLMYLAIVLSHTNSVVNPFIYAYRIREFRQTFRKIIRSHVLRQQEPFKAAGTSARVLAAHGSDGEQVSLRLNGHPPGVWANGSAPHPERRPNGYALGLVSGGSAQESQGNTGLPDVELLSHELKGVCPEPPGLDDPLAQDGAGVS

affinity to an Adenosine receptor (comparison) ([1]; APA vs BND): equal
duration of the action ([1]; intravenous bolus): less than 5 minutes
Structure (SMILES): Nc1nc(N/N=C/C2CCCCC2)nc2c1ncn2[C@@H]1O[C@H](CO)[C@@H](O)[C@H]1O [Binodenoson]

Structure (SMILES): COc1ccc(Cl)cc1C(=O)NCCc1ccc(S(=O)(=O)NC(=O)NC2CCCCC2)cc1 [Glibenclamide]
change of Adenosine ED50 ([2]; after Glibenclamide administration): increased dose-dependently
coronary conductance change [2]: reduction in coronary conductance
systemic pressure change [2]: increase in systemic pressure

Structure (SMILES): COC(=O)[C@@H](N)CCCNC(=N)N[N+](=O)[O-] [L-NAME, N^ω-Nitro-L-arginine methyl ester]
change of Adenosine plasma concentration needed to reach 50% of maximal conductivity increase (ED50) ([2]; after 1 mg/kg or 10 mg/kg of L-NAME, vs basal condition): increased three times
coronary conductance change [2]: reduction in coronary conductance
systemic pressure change [2]: increase in systemic pressure

Structure (SMILES): CNC(=O)c1cnn(-c2nc(N)c3ncn([C@@H]4O[C@H](CO)[C@@H](O)[C@H]4O)c3n2)c1 [Regadenoson]
stress myocardial blood flow (MBF), comparison (400 μg bolus vs Dipyridamole 0.56 mg/kg or Adenosine 140 μg/kg/min, 15 healthy volunteers): higher values
heart rate (HR), comparison (400 μg bolus vs Dipyridamole or Adenosine): higher values
stress MBF adjusted to HR, comparison (Regadenoson vs Adenosine): no differences between Adenosine and Regadenoson
stress MPR adjusted to HR, comparison (Regadenoson vs Adenosine): no differences between Regadenoson and Adenosine
unadjusted myocardial perfusion reserve (MPR), comparison (vs Adenosine and Dipyridamole): higher
